Earlier results as cited in patent US6645390B1, “Composition and method for treating hydrocarbon fires” (Hazard Control Technologies, Inc., priority 1994, dated 2003).

- solubility in water: slightly soluble
- pH (at the concentration of its slight solubility in water): about 3.5
Substance: isononanoic acid
